Data published in publication PMC5989697 (ACS Catalysis, 2018).

Target: T1, eugenol oxidase (EUGO) (Rhodococcus jostii, UniProt Q0SBK1)
T1 sequence (Q0SBK1 1-526): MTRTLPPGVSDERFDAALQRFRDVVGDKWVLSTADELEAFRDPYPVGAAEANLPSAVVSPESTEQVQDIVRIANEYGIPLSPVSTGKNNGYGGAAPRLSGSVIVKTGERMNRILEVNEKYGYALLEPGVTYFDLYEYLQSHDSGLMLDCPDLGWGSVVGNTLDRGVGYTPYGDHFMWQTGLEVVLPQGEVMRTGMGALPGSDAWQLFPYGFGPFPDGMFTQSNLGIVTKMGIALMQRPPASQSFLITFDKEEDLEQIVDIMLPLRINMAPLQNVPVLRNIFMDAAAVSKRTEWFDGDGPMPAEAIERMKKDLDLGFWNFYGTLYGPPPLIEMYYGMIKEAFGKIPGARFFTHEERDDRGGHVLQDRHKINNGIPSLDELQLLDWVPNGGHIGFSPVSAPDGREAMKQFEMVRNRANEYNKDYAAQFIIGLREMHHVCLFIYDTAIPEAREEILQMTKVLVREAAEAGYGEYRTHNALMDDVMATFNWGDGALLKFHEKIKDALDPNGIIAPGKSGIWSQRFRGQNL
Assay: steady-state kinetics
Type: biochemical

SMILES: C=CCc1cc(OC)c(O)c(OC)c1 [compound 1, 2,6-dimethoxy-4-allylphenol]
- Km: 0.77 µM
